Assay results published in patent US10781197B2, “Sulfonamide analogues of galiellalactone” (GLACTONE PHARMA DEVELOPMENT AB, priority 2016, dated 2020).
Where two headings read alike, the source gives them in different places. Blank lines part the entries; values can stand above or below the compound they belong to.

Tests used:
[1] = In vivo pharmacokinetics, plasma exposure after single oral dose; conditions: CD1 mice, single oral gavage 10 mg/kg
Procedure: Pharmacokinetic (PK) studies were performed in CD1 mice to establish plasma exposure following administration of single oral doses of galiellalactone (GL) and example 1. Sample analysis was by LC-MS/MS. Dose solutions were prepared at a drug concentration of 0.5 mg/mL in 5% DMSO in 50 mM citrate buffer (citric acid/sodium citrate pH 4.0) and administered as a 20 mL/kg oral gavage (10 mg/kg).

[2] = tested on: IL-6 stimulated LNCaP prostate cancer cells; test: Inhibition of IL-6 stimulated LNCaP cell proliferation, MTT assay; assay type: cell-based; conditions: Homo sapiens, IL-6 stimulated LNCaP cells, read-out: GIC50
[3] = tested on: STAT3 signaling; test: STAT3 Luciferase reporter gene assay; assay type: cell-based; conditions: for IC50: Homo sapiens, STAT3 reporter/HEK293 cell line, 1 h pretreatment, IL-6 induced for 16 h, luciferase activity, read-out: IC50
Procedure: The ability to inhibit STAT3 signaling of the example compounds in comparison to galiellalactone was evaluated using a STAT3 Luciferase reporter gene assay.
Compounds were tested for dose response activity to determine IC50 at eight different doses (0.03, 0.1, 0.3, 1, 3, 10, 30 and 100 μM) in triplicate on the STAT3 reporter system.
Briefly, the STAT3 reporter/HEK293 cell line was plated in 96-well white plates for 16 h. Cells were pretreated with compounds for 1 h. Cells were then treated with IL-6 to induce STAT3 activation for 16 h. Luciferase activity was measured and analyzed.

[4] = Chemical stability in phosphate buffer solution (PBS); assay type: physicochemical; conditions: 37° C., 1 μM test concentration
Procedure: The chemical stability of example 20 and 28 in solution was determined in phosphate buffer solution (PBS) at 37° C. as outlined below.
A 4 μl volume of 100 μM stock solution of the study compound in 50% DMSO was added to 396 μl of PBS, to obtain 1 μM test concentration. The study compounds were incubated in PBS at 37° C. with 600 rpm shaking. The incubations were quenched (30, 60, and 120 min) using a two-fold volume of cold acetonitrile and analyzed. The samples (0, 30, 60, and 120 min) were analyzed using a Waters Acquity UPLC with Thermo Q-Exactive Focus Orbitrap and a Waters HSS T3 (2.1×50 mm, 1.7 μm particle size) column.

[5] = tested on: IL-6/STAT3 signaling; conditions: cited from earlier work

AUC(0-inf) ([1]; mouse): 157 ng·h/mL | AUC(0-t) ([1]; mouse): 141 ng·h/mL | half-life ([1]; mouse, read-out: Apparent half-life (converted)): 2 h | Cmax ([1]; mouse, read-out: Cmax): 129 ng/mL | Tmax ([1]; mouse, read-out: Tmax): 0.25 h | IC50 [2]: 1 µM | IC50 [3]: 1.1 µM
Compound: Cc1ccc(S(=O)(=O)N[C@@]2(C)C=C3C(=O)O[C@@H]4CC[C@H](C2)[C@]34O)cc1 [Example 1, N-[(4R,7R,9R,11S)-11-Hydroxy-9-methyl-2-oxo-3-oxatricyclo[5.3.1.0^4,11]undec-1(10)-en-9-yl]-4-methylbenzene-1-sulfonamide]

half-life at 1 μM [4]: 5.82 h | IC50 [3]: 1.25 µM
Compound: C[C@]1(NS(=O)(=O)c2ccc(C(F)(F)F)cn2)C=C2C(=O)O[C@@H]3CCC(C1)[C@]23O (stereo partly drawn) [Example 20, N-[(4R,7R,9R,11S)-11-hydroxy-9-methyl-2-oxo-3-oxatricyclo[5.3.1.0^4,^11]undec-1(10)-en-9-yl]-5-(trifluoromethyl)pyridine-2-sulfonamide]

IC50 [3]: 97 µM | activity in the STAT3 reporter assay (in words) ([3]; listed as example 24): no or low activity
Compound: CC(C)S(=O)(=O)N[C@@]1(C)C=C2C(=O)O[C@@H]3CC[C@H](C1)[C@]23O [Example 24, N-[(4R,7R,9R,11 S)-11-Hydroxy-9-methyl-2-oxo-3-oxatricyclo[5.3.1.0^4,11]undec-1(10)-en-9-yl]propane-2-sulfonamide]
activity in the STAT3 reporter assay (in words) [3]: significantly reduced or total loss of activity

IC50 [3]: 3.7 µM
Compound: COc1ccc(CN2C(=O)C3=C[C@](C)(NS(=O)(=O)c4ccc(C)cc4)CC4CC[C@@H]2[C@@]34O)cc1 (stereo partly drawn) [Example 25, N-[(4R,7R,9R,11S)-11-hydroxy-3-[(4-methoxyphenyl)methyl]-9-methyl-2-oxo-3-azatricyclo[5.3.1.04,^11]undec-1(10)-en-9-yl]-4-methylbenzene-1-sulfonamide]

IC50 [3]: 8.64 µM
Compound: COc1ccc(CN2C(=O)C3=C[C@](C)(NS(=O)(=O)c4ccc(C(F)(F)F)cn4)CC4CC[C@@H]2[C@@]34O)cc1 (stereo partly drawn) [Example 26, N-[(4R,7R,9R,11S)-11-Hydroxy-3-[(4-methoxyphenyl)methyl]-9-methyl-2-oxo-3-azatricyclo[5.3.1.04,^11]undec-1(10)-en-9-yl]-5-(trifluoromethyl)pyridine-2 sulfonamide]

IC50 [3]: 8.61 µM
Compound: C[C@]1(NS(=O)(=O)c2ccc(C(F)(F)F)cn2)C=C2C(=O)N(Cc3ccc(C#N)cc3)[C@@H]3CC[C@H](C1)[C@]23O [Example 27, N-[(4R,7R,9R,11S)-3-[(4-Cyanophenyl)methyl]-11-hydroxy-9-methyl-2-oxo-3-azatricyclo[5.3.1.0^4,11]undec-1 (10)-en-9-yl]-5-(trifluoromethyl)pyridine-2-sulfonamide]

half-life at 1 μM [4]: > 13.2 h | IC50 [3]: 0.92 µM
Compound: C[C@]1(NS(=O)(=O)c2ccc(C(F)(F)F)cn2)C=C2C(=O)O[C@]3(C)CC[C@H](C1)[C@]23O [Example 28, N-[(4R,7R,9R,11S)-11-hydroxy-4,9-dimethyl-2-oxo-3-oxatricyclo[5.3.1.0^4,11]undec-1 (10)-en-9-yl]-5-(trifluoromethyl)pyridine-2-sulfonamide]

Cmax [1]: 52 ng/mL | Tmax [1]: 0.5 h | IC50 [2]: 2.8 µM | IC50 [3]: 7.5 µM
Compound: C[C@@H]1C=C2C(=O)O[C@@H]3CC[C@H](C1)[C@]23O [Galiellalactone, (−)-Galiellalactone]
inhibition of IL-6/STAT3 signaling [5]: submicromolar
